This note sets out measurements from patent US8602544B2, “Ink set, ink cartridge, ink jet recording method, and ink jet recording apparatus” (Canon Kabushiki Kaisha, priority 2009, dated 2013).

The data set can be described thus: Determination of poor medium/good medium (solubility of the dye in a water-soluble organic solvent). Format: physicochemical. As for the experimental part:
It is determined by the solubility of the dye whether a certain water-soluble organic solvent is a good medium or a poor medium with respect to a dye to be used together. In other words, the good medium and the poor medium are indexes which indicate the relationship between the water-soluble organic solvent and the dye from the viewpoint of the solubility.
More specifically, it can be determined in the following way whether a certain water-soluble organic solvent is a good medium or a poor medium with respect to a dye being an object to be determined. The water-soluble organic solvent of an object to be determined and a sufficient amount of a dye are placed into a sample bottle having a capacity of approximately 20 cc, and the liquid is stirred overnight. […] Because the supernatant liquid after the centrifugal separation is a saturated solution of the dye, the solubility of the dye can be determined by measuring the absorbance of the liquid, and calculating the ratio of the measured absorbance to the absorbance of an aqueous solution of the dye with a known concentration.
In order to evaluate the reliability of the ink, it was determined what type of relationship there was between a dye and a water-soluble organic solvent which were contained in an ink. A water-soluble organic solvent being an object to be determined (when the water-soluble organic compound is solid, it was a 20% aqueous solution of the solid) and a sufficient amount of the dye were placed into a sample bottle having a capacity of 20 cc, and the liquid was stirred overnight. […] Then, the solubility of the dye with respect to the water-soluble organic solvent being the object to be determined (or 20% aqueous solution) was determined from the ratio of the measured absorbance to the previously measured absorbance of an aqueous solution having a predetermined concentration of the dye. From the obtained solubility, a water-soluble organic solvent having a solubility of 5% or less was determined to be a poor medium, and a water-soluble organic solvent having a solubility of more than 5% was determined to be a good medium.

The mark [1] stands for this setting: 1-(2-hydroxyethyl)-2-pyrrolidinone.
Where [2] appears, read: Triethylene glycol monobutyl ether.

Take `CCc1cc(C)c(S(=O)(=O)O)c(CC)c1Nc1nc(N(c2nc3ccc(S(=O)(=O)O)cc3s2)c2c(CC)cc(C)c(S(=O)(=O)O)c2CC)cc(C)c1N=Nc1c(C#N)c(C(C)(C)C)nn1-c1nc2ccc(S(=O)(=O)O)cc2s1` [Exemplified compound M2]: the “Determination results for poor medium/good medium (solubility of the dye)” value is “good (a water-soluble organic solvent having a solubility of more than 5% was determined to be a good medium)” (1,2-hexandiol); “good (a water-soluble organic solvent having a solubility of more than 5% was determined to be a good medium)” (1,5-pentanediol); “good (a water-soluble organic solvent having a solubility of more than 5% was determined to be a good medium)” under setting [1]; “good (a water-soluble organic solvent having a solubility of more than 5% was determined to be a good medium)” (2-methyl-1,3-propanediol); “good (a water-soluble organic solvent having a solubility of more than 5% was determined to be a good medium)” (Diethylene glycol); “good (a water-soluble organic solvent having a solubility of more than 5% was determined to be a good medium)” (Ethylene glycol). The “Determination results for poor medium/good medium (solubility of the dye)” value runs as follows: (Glycerin) “good (a water-soluble organic solvent having a solubility of more than 5% was determined to be a good medium)”; (Propylene glycol) “good (a water-soluble organic solvent having a solubility of more than 5% was determined to be a good medium)”; (Triethylene glycol) “good (a water-soluble organic solvent having a solubility of more than 5% was determined to be a good medium)”; under setting [2], “good (a water-soluble organic solvent having a solubility of more than 5% was determined to be a good medium)”.
As to `Cn1c(=O)c(C(=O)c2cccc(S(=O)(=O)O)c2)c2c3c(c(Nc4cc(Nc5nc(NCCNc6nc(Nc7cc(Nc8ccc9c%10c8C(=O)c8ccccc8-c%10c(C(=O)c8cccc(S(=O)(=O)O)c8)c(=O)n9C)c(S(=O)(=O)O)cc7S(=O)(=O)O)nc(Oc7ccc(S(=O)(=O)O)cc7)n6)nc(Oc6ccc(S(=O)(=O)O)cc6)n5)c(S(=O)(=O)O)cc4S(=O)(=O)O)ccc31)C(=O)c1ccccc1-2` [Exemplified compound M1], the “Determination results for poor medium/good medium (solubility of the dye)” value was “poor (a water-soluble organic solvent having a solubility of 5% or less was determined to be a poor medium)” (1,2-hexandiol); “poor (a water-soluble organic solvent having a solubility of 5% or less was determined to be a poor medium)” (1,5-pentanediol); “good (a water-soluble organic solvent having a solubility of more than 5% was determined to be a good medium)” under setting [1]; “poor (a water-soluble organic solvent having a solubility of 5% or less was determined to be a poor medium)” (2-methyl-1,3-propanediol); “good (a water-soluble organic solvent having a solubility of more than 5% was determined to be a good medium)” (Diethylene glycol); “good (a water-soluble organic solvent having a solubility of more than 5% was determined to be a good medium)” (Ethylene glycol). Besides, the “Determination results for poor medium/good medium (solubility of the dye)” value is given as “good (a water-soluble organic solvent having a solubility of more than 5% was determined to be a good medium)” (Glycerin), “good (a water-soluble organic solvent having a solubility of more than 5% was determined to be a good medium)” (Propylene glycol), “good (a water-soluble organic solvent having a solubility of more than 5% was determined to be a good medium)” (Triethylene glycol) and “good (a water-soluble organic solvent having a solubility of more than 5% was determined to be a good medium)” under setting [2].
